# Laboratory results published in patent US20240122975A1, “IN VITRO METHODS AND COMPOSITIONS FOR ENHANCING THE ACTIVATION OF DENDRITIC CELLS AND T CELLS, AND FOR INDUCING A TH-1 IMMUNE RESPONSE” (Northwest Biotherapeutics, Inc., priority 2019, published 2024).
# Test system: Immature cryopreserved C57BL/6 and BALB/c DCs
# Test: Luminex xMAP cytokine production by cryopreserved murine immature DCs primed with TLR agonist then oxPAPC or PGPC (Example 5)
# Assay type: cell-based, C57BL/6 and BALB/c mice
# Conditions: TLR agonist stimulated murine DCs; increasing concentrations of lipid (1-90 μg/ml, 48 hours)
# Experimental: Immature cryopreserved C57BL/6 and BALB/c DCs (Cellero) were rapidly thawed in a water bath at 37° C. and the cells were resuspended in 10 times the volume of RPMI 1640/10% FBS/penicillin/streptomycin/L-glutamine/2-ME. Cells were washed twice using complete media. Thawed cells were plated in triplicate at 2×10^5 cells/well in a 96-well flat bottom TC plate. DCs were primed with 1 μg/ml of LPS (Sigma Aldrich), 1:400 dilution of hBCG (Organon Teknika/Cognate), 1 μg/ml of R848 (Sigma Aldrich), 1 μg/ml Pam2 (Invivogen), 1 μg/ml Pam3 (Invivogen), and 25 μg/ml of Poly I:C HMW (“high molecular weight”; Invivogen) for 3 hrs. Titrated concentrations of oxPAPC (Invivogen) or PGPC (Cayman)—at 1 μg/ml, 3 μg/ml, 10 μg/ml, 30 μg/ml, and 90 μg/ml—were added to appropriate samples and cultured for an additional 48 hours. Cytokine production in 100 μl of culture medium was assessed by a mouse cytokine and chemokine panel, across 26 protein targets (IFNγ; IL12 p70; IL13; IL1β; IL2; IL4; IL5; IL6; TNFα; GM-CSF; IL18; IL10; IL17A; IL22; IL23; IL27; IL9; GROα; IP10; MCP1; MCP3; MIP1α; MIP1β; MIP2; RANTES; and Eotaxin), using Luminex xMAP® multiplex technology using the manufacturer's. The xMAP system is an immunoassay system that can simultaneously detect many targets in a single sample.
smiles,measurement,value
"CCCCCCCCCCCCCCCC(=O)OCC(COP(=O)([O-])OCC[N+](C)(C)C)OC(=O)CCCC(=O)O (stereo not shown) [PGPC, 1-palmitoyl-2-glutaryl phosphatidylcholine]",production of IL-1β,upregulated production
